Results taken from US8735411B2, “Macrocyclic benzofused pyrimidine derivatives” (AbbVie Inc., priority 2006, dated 2014).

biological target: histamine H4 receptor (Homo sapiens, UniProt Q9H3N8); experiment: In vitro histamine H4 potency in FLIPR (Ca2+ flux, HEK-293 cells coexpressing Gαqi5); type: cell-based; design: expressed in transfected cells; details: Kb for antagonists and inverse agonists, EC50 for partial agonists
Description: There are many methods available to show the effectiveness of compounds as histamine H4 receptor ligands. Histamine H4 receptors from mammalian species have been cloned. Methods to clone, express, and assess the potency and functional activity of such cloned genes are well known to those skilled in the art of molecular biology. […] Before testing, cells are loaded with a Ca^+2 sensitive fluorescent dye, in this case Fluo-4. In the case of partial agonist or agonist ligands, addition of compound to the cells leads to the increase in intracellular Ca^+2 which is detected by FLIPR (Fluorescence Imaging Plate Reader; Molecular Devices, Sunnyvale, Calif.) technology. […] The fluorescence intensities measured before addition of the test compound are subtracted from the fluorescence intensities at later time points. Peak response values determined at each concentration of ligand are expressed as a percentage of the response obtained with the full agonist histamine. Concentration versus response data are analyzed to obtain compound potency as Kb values for antagonists and inverse agonists and as EC50 values for partial agonists.

Structure (SMILES)	Potency [nM]
CNc1ccc2c(c1)-c1nc(N)nc(N3C[C@H]4CCCN[C@H]4C3)c1CCC2 [Example 131, 10-N-methyl-4-[(4aR,7aR)-octahydro-6H-pyrrolo[3,4-b]pyridin-6-yl]-6,7-dihydro-5H-benzo[6,7]cyclohepta[1,2-d]pyrimidine-2,10-diamine]	113
CNc1nc2c(c(N3CCNCC3)n1)CCCc1ccccc1-2 [Example 123, Methyl-(4-piperazin-1-yl-6,7-dihydro-5H-benzo[6,7]cyclohepta[1,2-d]pyrimidin-2-yl)-amine]	1622
CNC1CN(c2nc(N)nc3c2CCSc2ccccc2-3)C1 [Example 33, 4-(3-Methylamino-azetidin-1-yl)-5,6-dihydro-7-thia-1,3-diaza-dibenzo[a,c]cyclohepten-2-ylamine]	13
CNC1CN(c2nc(N)nc3c2CCCCCc2ccccc2-3)C1 [Example 26, 4-(3-Methylamino-azetidin-1-yl)-6,7,8,9-tetrahydro-5H-1,3-diaza-dibenzo[a,c]cyclononen-2-ylamine]	115
CN[C@@H]1CCN(c2nc(N)nc3c2CCOc2cc(C)ccc2-3)C1 [Example 49, 9-methyl-4-[(3R)-3-(methylamino)pyrrolidin-1-yl]-5,6-dihydro[1]benzoxepino[5,4-d]pyrimidin-2-amine]	39
N#Cc1ccc2c(c1)OCCc1c-2nc(N)nc1N1CC2CCCNC2C1 (stereo not drawn) [Example 104, 2-Amino-4-octahydro-pyrrolo[3,4-b]pyridin-6-yl-5,6-dihydro-7-oxa-1,3-diaza-dibenzo[a,c]cycloheptene-9-carbonitrile]	141
Nc1nc(NC2CCCC3CNCC32)c2c(n1)-c1ccccc1CCC2 (stereo not drawn) [Example 122, N^4-(Octahydro-isoindol-4-yl)-6,7-dihydro-5H-benzo[6,7]cyclohepta[1,2-d]pyrimidine-2,4-diamine]	1288
Nc1nc2c(c(N3CC4CCCNC4C3)n1)CCCc1ccc(F)cc1-2 (stereo not drawn) [Example 115, 10-fluoro-4-octahydro-6H-pyrrolo[3,4-b]pyridin-6-yl-6,7-dihydro-5H-benzo[6,7]cyclohepta[1,2-d]pyrimidin-2-amine]	32
CNC1CN(c2nc(N)nc3c2CC(C)c2ccccc2-3)C1 (stereo not drawn) [Example 2, 6-Methyl-4-(3-methylamino-azetidin-1-yl)-5,6-dihydro-benzo[h]quinazolin-2-ylamine]	44
Nc1nc2c(c(N3CC[C@@H](N)C3)n1)CCCCCc1ccccc1-2 [Example 24, 4-((R)-3-Amino-pyrrolidin-1-yl)-6,7,8,9-tetrahydro-5H-1,3-diaza-dibenzo[a,c]cyclononen-2-ylamine]	148
CN[C@@H]1CCN(c2nc(N)nc3c2COc2ccccc2-3)C1 [Example 9, 1-(3-(R)-Methylamino-pyrrolidin-1-yl)-10H-9-oxa-2,4-diaza-phenanthren-3-ylamine]	32
Nc1nc2c(c(N3C[C@@H]4CN[C@@H]4C3)n1)CCCc1ccccc1-2 [Example 120, (1S,5S)-4-(3,6-Diaza-bicyclo[3.2.0]hept-3-yl)-6,7-dihydro-5H-benzo[6,7]cyclohepta[1,2-d]pyrimidin-2-ylamine]	603
CN[C@@H]1CCN(c2nc(N)nc3c2CCCCCc2ccccc2-3)C1 [Example 23, 4-(3-(R)-Methylamino-pyrrolidin-1-yl)-6,7,8,9-tetrahydro-5H-1,3-diaza-dibenzo[a,c]cyclononen-2-ylamine]	56
CNC1CN(c2nc(N)nc3c2CCCc2ccc(F)cc2-3)C1 [Example 12, 10-Fluoro-4-(3-methylamino-azetidin-1-yl)-6,7-dihydro-5H-benzo[6,7]cyclohepta[1,2-d]pyrimidin-2-ylamine]	7.4
CC1CCN(c2nc(N)nc3c2CCCc2ccccc2-3)CCN1 (stereo not drawn) [Example 67, 4-(5-methyl-1,4-diazepan-1-yl)-6,7-dihydro-5H-benzo[6,7]cyclohepta[1,2-d]pyrimidin-2-amine]	69
Nc1nc2c(c(N3CC[C@@H]4CNC[C@@H]43)n1)CCCCc1ccccc1-2 [Example 58, 4-[(3aR,6aR)-hexahydropyrrolo[3,4-b]pyrrol-1(2H)-yl]-5,6,7,8-tetrahydrobenzo[7,8]cycloocta[1,2-d]pyrimidin-2-amine]	182
Nc1nc2c(c(N3C[C@H]4CNC[C@H]43)n1)CCCc1ccccc1-2 [Example 117, (1R,5S)-4-(3,6-Diaza-bicyclo[3.2.0]hept-6-yl)-6,7-dihydro-5H-benzo[6,7]cyclohepta[1,2-d]pyrimidin-2-ylamine]	12
Nc1nc2c(c(N3CCC4CC3CN4)n1)CCCc1ccccc1-2 (stereo not drawn) [Example 82, 4-(2,6-Diaza-bicyclo[3.2.1]oct-2-yl)-6,7-dihydro-5H-benzo[6,7]cyclohepta[1,2-d]pyrimidin-2-ylamine]	2042
CN[C@@H]1CCN(c2nc(N)nc3c2CCOc2c(Cl)cccc2-3)C1 [Example 51, 8-chloro-4-[(3R)-3-(methylamino)pyrrolidin-1-yl]-5,6-dihydro[1]benzoxepino[5,4-d]pyrimidin-2-amine]	41
CN1CCN(c2nc(N)nc3c2CCCc2ccccc2-3)CC1 [Example 5, 4-(4-Methyl-piperazin-1-yl)-6,7-dihydro-5H-benzo[6,7]cyclohepta[1,2-d]-pyrimidin-2-ylamine]	9.8
Nc1nc2c(c(N3CCNCC3)n1)CCCCc1ccccc1-2 [Example 20, 4-Piperazin-1-yl-5,6,7,8-tetrahydro-1,3-diaza-dibenzo[a,c]cycloocten-2-ylamine]	32
Nc1nc2c(c(N3CCN4CCCC4C3)n1)CCCc1ccccc1-2 (stereo not drawn) [Example 80, 4-(Octahydro-pyrrolo[1,2-a]pyrazin-2-yl)-6,7-dihydro-5H-benzo[6,7]cyclohepta[1,2-d]pyrimidin-2-ylamine]	178
Nc1nc2c(c(N3CC[C@H]4CNC[C@H]43)n1)CCCc1ccccc1-2 [Example 119, (3aS,6aS)-4-(Hexahydro-pyrrolo[3,4-b]pyrrol-1-yl)-6,7-dihydro-5H-benzo[6,7]cyclohepta[1,2-d]pyrimidin-2-amine]	269
CN[C@@H]1CCN(c2nc(N)nc3c2CCOc2ccc(OC)cc2-3)C1 [Example 47, 10-methoxy-4-[(3R)-3-(methylamino)pyrrolidin-1-yl]-5,6-dihydro[1]benzoxepino[5,4-d]pyrimidin-2-amine]	912

Second part, the compound after the results:

Potency [nM]	Structure (SMILES)
219	CN(C)CCOc1nc(N)nc2c1CCCc1ccccc1-2 [Example 74, 4-(2-Dimethylamino-ethoxy)-6,7-dihydro-5H-benzo[6,7]cyclohepta[1,2-d]pyrimidin-2-ylamine]
724	Nc1nc2c(c(N3CCC4(CCNC4)CC3)n1)CCCc1ccccc1-2 [Example 60, 4-(2,8-diazaspiro[4.5]dec-8-yl)-6,7-dihydro-5H-benzo[6,7]cyclohepta[1,2-d]pyrimidin-2-amine]
891	Nc1nc2c(c(N3CC4(CCCCN4)C3)n1)CCCc1ccccc1-2 [Example 78, 4-(2,5-Diaza-spiro[3.5]non-2-yl)-6,7-dihydro-5H-benzo[6,7]cyclohepta[1,2-d]pyrimidin-2-ylamine]
140	Nc1nc2c(c(N3CC4CCCNC4C3)n1)CCOc1cc(-c3cccnc3)ccc1-2 (stereo not drawn) [Example 106, 4-Octahydro-pyrrolo[3,4-b]pyridin-6-yl-9-pyridin-3-yl-5,6-dihydro-7-oxa-1,3-diaza-dibenzo[a,c]cyclohepten-2-ylamine]
389	Nc1nc2c(c(N3CCC(N)CC3)n1)CCCc1ccccc1-2 [Example 62, 4-(4-aminopiperidin-1-yl)-6,7-dihydro-5H-benzo[6,7]cyclohepta[1,2-d]pyrimidin-2-amine]
3388	O=C(Nc1nc2c(c(N3CCNCC3)n1)CCCc1ccccc1-2)c1ccccc1 [Example 84, N-(4-Piperazin-1-yl-6,7-dihydro-5H-benzo[6,7]cyclohepta[1,2-d]pyrimidin-2-yl)-benzamide]
11885	O=C(O)c1nc2c(c(N3CC4CCCNC4C3)n1)CCCc1ccccc1-2 (stereo not drawn) [Example 134, 4-(Octahydro-pyrrolo[3,4-b]pyridin-6-yl)-6,7-dihydro-5H-benzo[6,7]cyclohepta[1,2-d]pyrimidine-2-carboxylic acid]
135	NCCC(=O)Nc1nc2c(c(N3CCNCC3)n1)CCCc1ccccc1-2 [Example 93, 3-Amino-N-(4-piperazin-1-yl-6,7-dihydro-5H-benzo[6,7]cyclohepta[1,2-d]pyrimidin-2-yl)-propionamide]
14454	COC(=O)c1nc2c(c(N3CC4CCCNC4C3)n1)CCCc1ccccc1-2 (stereo not drawn) [Example 133, 4-(Octahydro-pyrrolo[3,4-b]pyridin-6-yl)-6,7-dihydro-5-benzo[6,7]cyclohepta[1,2-d]pyrimidine-2-carboxylic acid methyl ester]
2951	CC(=O)Nc1nc2c(c(N3CCNCC3)n1)CCCc1ccccc1-2 [Example 83, N-(4-Piperazin-1-yl-6,7-dihydro-5H-benzo[6,7]cyclohepta[1,2-d]pyrimidin-2-yl)-acetamide]
1413	CN[C@@H]1CCN(c2ncnc3c2CCCc2ccccc2-3)C1 [Example 124, 4-(3-(R)-Methylamino-pyrrolidin-1-yl)-6,7-dihydro-5H-benzo[6,7]cyclohepta[1,2-d]pyrimidine]
13	CN1CCN(c2nc(N)nc3c2CCc2ccccc2-3)CC1 [Example 42, 4-(4-Methyl-piperazin-1-yl)-5,6-dihydro-benzo[h]quinazolin-2-ylamine]
